From patent US11197904B2, “Pharmaceutical compositions for preventions and managements of dementia, infectious diseases, cancers, periodontitis, dental caries, diabetes, obesity, osteoporosis and chronic pain and methods thereof” (Chung Shan Medical University, priority 2018, dated 2021)
Converted amounts (≈) assume the structure as drawn. Read-outs that look alike come from different tables or passages of the source. Marks after values point to notes of the source that are not given here.

Tests used:
[1] = system: Porphyromonas gingivalis (P.g.); conditions: for IC50: read-out: IC50, P. g., metals alone
[2] = system: Streptococcus mutans (S.m., UA159); conditions: for IC50: read-out: IC50, UA159, metals alone
[3] = system: Pseudomonas aeruginosa (P.a.); conditions: for IC50: read-out: IC50, P. a., metals alone
[4] = system: Staphylococcus aureus (S.a); conditions: for IC50: read-out: IC50, S. a., metals alone
[5] = system: Porphyromonas gingivalis (P.g.); test: microbe, parasite or virus in culture; conditions: read-out: IC50, 50% inhibition on bacterial proliferation, P. g.
[6] = system: Streptococcus mutans (S.m., UA159); test: microbe, parasite or virus in culture; conditions: read-out: IC50, 50% inhibition on bacterial proliferation, UA159
[7] = system: Pseudomonas aeruginosa (P.a.); test: microbe, parasite or virus in culture; conditions: read-out: IC50, 50% inhibition on bacterial proliferation, P. a.
[8] = system: Staphylococcus aureus (S.a); test: microbe, parasite or virus in culture; conditions: read-out: IC50, 50% inhibition on bacterial proliferation, S. a.
[9] = system: Lactobacillus reuteri (L.r.); test: Proliferation of the probiotic Lactobacillus reuteri (OD600); type: cell-based
[10] = 3 to 10 times higher than the listed IC50, Table 1
[11] = 3 to 10 times higher IC50, Table 2

Compound | IC50 [5] | IC50 [6] | IC50 [7] | IC50 [8] | further results
[Na+].[Na+].[Na+].[O]=[V]([O-])([O-])[O-] [Na3VO4] |  |  |  |  | IC50 [1]: 217 µM; IC50 [2]: 866 µM; IC50 [3]: > 2000 µM; IC50 [4]: > 2000 µM
O[C@H](CS)[C@H](O)CS (racemic) [Dithiothreitol] | > 300 µg/mL | > 300 µg/mL | > 300 µg/mL | > 300 µg/mL | 
N.N.N.N.N.N.N.N.N.N.N.N.N.N.[Cl-].[Cl-].[Cl-].[Cl-].[Cl-].[Cl-].[O-2].[O-2].[Ru+3].[Ru+3].[Ru+4] [Ruthenium red] |  |  |  |  | Inhibition on proliferation of Lactobacillus reuteri [9, 10]: RuR*,; IC50 [1]: 74 µM; IC50 [2]: 644 µM; IC50 [3]: 32 µM; IC50 [4]: > 116 µM
NC[C@H]1O[C@H](O[C@H]2[C@H](O)[C@@H](O[C@H]3O[C@H](CO)[C@@H](O)[C@H](N)[C@H]3O)[C@H](N)C[C@@H]2N)[C@H](N)C[C@@H]1O [Tobramycin] | 4 µg/mL (≈ 8.56 µM) | < 3 µg/mL | 9 µg/mL (≈ 19.3 µM) | < 3 µg/mL | 
CN(C)CCCN1c2ccccc2Sc2ccc(Cl)cc21 [Chlorpromazine] | 5 µg/mL (≈ 15.7 µM) | 7 µg/mL (≈ 22 µM) | 149 µg/mL (≈ 467 µM) | 12 µg/mL (≈ 37.6 µM) | Inhibition on proliferation of Lactobacillus reuteri [9, 11]: CPZ, Chlorpromazine*
N=C(N)NCCC[C@H](N)C(=O)N[C@@H](Cc1ccccc1)C(=O)O [ArgPhe] |  |  |  |  | IC50, 50% inhibition on bacterial proliferation, P. g. [1]: >100 µg/mL; IC50, 50% inhibition on bacterial proliferation, UA159 ([2]; S.m., UA159): >100 µg/mL; IC50, 50% inhibition on bacterial proliferation, P. a. ([3]; P.a., 16 h): >100 µg/mL; IC50, 50% inhibition on bacterial proliferation, S. a. ([4]; S.a, 16 h): >100 µg/mL
C=C[C@H]1C[N@@]2CC[C@H]1C[C@H]2[C@H](O)c1ccnc2ccc(OC)cc12 [Quinine] | 43 µg/mL (≈ 133 µM) | > 100 µg/mL | > 100 µg/mL | > 100 µg/mL | 
CSc1ccc2c(c1)N(CCC1CCCCN1C)c1ccccc1S2 (stereo not drawn) [Thioridazine] |  |  |  |  | Inhibition on proliferation of Lactobacillus reuteri [9, 11]: TRZ, Thioridazine*
polyarginine |  |  |  |  | IC50, 50% inhibition on bacterial proliferation, P. g. ([1]; single agent): 25 µg/mL; IC50, 50% inhibition on bacterial proliferation, UA159 ([2]; single agent): >100 µg/mL; IC50, 50% inhibition on bacterial proliferation, P. a. ([3]; single agent): >100 µg/mL; IC50, 50% inhibition on bacterial proliferation, S. a. ([4]; single agent): >100 µg/mL
C[C@@H]1CC[C@@]2(OC1)O[C@H]1[C@@H](O)[C@H]3[C@@H]4CC[C@H]5C[C@@H](O[C@@H]6O[C@H](CO)[C@H](O[C@@H]7O[C@H](CO)[C@@H](O)[C@H](O[C@@H]8OC[C@@H](O)[C@H](O)[C@H]8O)[C@H]7O[C@@H]7O[C@H](CO)[C@H](O)[C@H](O[C@@H]8O[C@H](CO)[C@@H](O)[C@H](O)[C@H]8O)[C@H]7O)[C@H](O)[C@H]6O)[C@H](O)C[C@]5(C)[C@H]4CC[C@]3(C)[C@H]1[C@@H]2C [Digitonin] | 123 µg/mL (≈ 100 µM) | > 300 µg/mL | > 300 µg/mL | > 300 µg/mL | 
O=c1c(O)c(-c2ccc(O)c(O)c2)oc2cc(O)cc(O)c12 [Quercetin] | > 100 µg/mL | 46 µg/mL (≈ 152 µM) | > 100 µg/mL | > 100 µg/mL | 
O=S(=O)([O-])[O-].[Zn+2] [ZnSO4] |  |  |  |  | Inhibition on proliferation of Lactobacillus reuteri [9, 10]: ZnSO4*; IC50 [1]: 1060 µM; IC50 [2]: 961 µM; IC50 [3]: 1160 µM; IC50 [4]: 939 µM
COc1cc(/C=C/C(=O)CC(=O)/C=C/c2ccc(O)c(OC)c2)ccc1O [Curcumin] | 126 µg/mL (≈ 342 µM) | 42 µg/mL (≈ 114 µM) | 302 µg/mL (≈ 820 µM) | < 1000 µg/mL | Inhibition on proliferation of Lactobacillus reuteri [9, 10]: C*, Curcumin
COc1ccc(CCN(C)CCCC(C#N)(c2ccc(OC)c(OC)c2)C(C)C)cc1OC (stereo not drawn) [Verapamil] | 137 µg/mL (≈ 301 µM) | > 300 µg/mL | > 300 µg/mL | > 300 µg/mL | 
C[C@@H]1[C@H](O)[C@@H](C)/C=C/C=C/CC/C=C/C=C/C=C/C=C/C(O[C@H]2O[C@H](C)[C@@H](O)[C@H](N)[C@@H]2O)CC2O[C@](O)(CC(O)C(O)CCC(O)CC(O)CC(O)CC(=O)O[C@H]1C)CC(O)C2C(=O)O (stereo partly drawn) [Nystatin] |  |  |  |  | IC50, 50% inhibition on bacterial proliferation, P. g. ([1]; single agent): 228 µg/mL (≈ 246 µM); IC50, 50% inhibition on bacterial proliferation, UA159 ([2]; single agent): >300 µg/mL; IC50, 50% inhibition on bacterial proliferation, P. a. ([3]; single agent): >300 µg/mL; IC50, 50% inhibition on bacterial proliferation, S. a. ([4]; single agent): >300 µg/mL
Cc1nc(C)c(C)nc1C [Tetramethyl-pyrazine] | 37 µg/mL (≈ 272 µM) | > 300 µg/mL | > 300 µg/mL | > 300 µg/mL | 
O=C(O[C@@H]1Cc2c(O)cc(O)cc2O[C@@H]1c1cc(O)c(O)c(O)c1)c1cc(O)c(O)c(O)c1 [EGCG] |  |  |  |  | IC50, 50% inhibition on bacterial proliferation, P. g. ([1]; single agent): 83 µg/mL (≈ 181 µM); IC50, 50% inhibition on bacterial proliferation, UA159 ([2]; single agent): 137 µg/mL (≈ 299 µM); IC50, 50% inhibition on bacterial proliferation, P. a. ([3]; single agent): 173 µg/mL (≈ 377 µM); IC50, 50% inhibition on bacterial proliferation, S. a. ([4]; single agent): 142 µg/mL (≈ 310 µM)
CO[C@H]1/C=C/O[C@@]2(C)Oc3c(C)c(O)c4c(O)c(c(/C=N/N5CCN(C)CC5)c(O)c4c3C2=O)NC(=O)/C(C)=C\C=C\[C@H](C)[C@H](O)[C@@H](C)[C@@H](O)[C@@H](C)[C@H](OC(C)=O)[C@@H]1C [Rifampin] | 0.45 µg/mL (≈ 0.547 µM) | 0.013 µg/mL (≈ 0.0158 µM) | 26 µg/mL (≈ 31.6 µM) | 0.013 µg/mL (≈ 0.0158 µM) | 
[Cl][Mn][Cl] [MnCl2] |  |  |  |  | Inhibition on proliferation of Lactobacillus reuteri [9, 10]: MnCl2*; IC50 [1]: 990 µM; IC50 [2]: 1440 µM; IC50 [3]: > 2000 µM; IC50 [4]: 2740 µM
